{
  "source": "patent US7741334B2",
  "about": "“Low dose therapy for treating viral infections” (priority 2004, dated 2010)",
  "key": {"[1]": {"experiment": "Therapeutic window from PK versus PD relationship", "details": "human", "excerpt": "Pharmacokinetics and pharmacodynamics modeling was used to explore potential dosing regimens for Elvucitabine. A pharmacokinetics (PK) model was developed to describe both the plasma concentration-time data and excreted urinary amounts from previously completed studies with Elvucitabine. With the PK model in hand and pharmacodynamics (PD) results of previously completed studies, the relationship of PK and PD from an efficacy and toxicity standpoint is obtained. From the results of the PK and PD studies, a therapeutic window of Elvucitabine is defined and simulated dosing regimens ranging from 5 mg BID to 100 mg Q1 week were explored using ADAPT II® Pharmacokinetic and Pharmacodynamic Systems Analysis Software. From the simulated dosing regimen results, ten dosing regimens were identified allowing maintenance therapy with Elvucitabine at levels effective against both HIV and HBV while avoiding bone toxicity.\nFrom the foregoing results, a therapeutic window of Elvucitabine was identified. It has been determined that a 5 mg QD dose is effective for HBV and, therefore, a plasma AUCss/24 of 300 μg·h/L was identified as the efficacy threshold."}, "[2]": {"experiment": "Population PK analysis of plasma and urine data, study ACH443-011, 1×20 mg tablet PO", "details": "human, in vivo", "method": "The PK model created included an individual compartmental PK analysis using ADAPT-II® and Population PK analysis using an iterative two-stage population modeling technique (IT2S®) of plasma and urine data from a study of healthy subjects, n=29, 1×20 mg tablet PO (ACH443-011). FIG. 1 illustrates the PK model of Elvucitabine according to a three compartment model characterized by two absorption peaks, each associated with a lag time and a first order absorption rate constant.\nFIG. 2 illustrates an example of individual fit using a Population PK analysis (IT2S)."}},
  "data": [
    {"smiles": "Nc1nc(=O)n([C@H]2C=C[C@@H](CO)O2)cc1F", "note": "[Elvucitabine, 4-amino-5-fluoro-1-((2R,5S)-5-(hydroxymethyl)-2,5-dihydrofuran-2-yl)pyrimidin-2(1H)-one]", "values": [
      {"measurement": "Cmax", "setting": "[1]", "value": "> 40", "unit": "ng/mL"},
      {"measurement": "central compartment (plasma) Cmin at onset of toxicity", "setting": "[1]", "value": "≥ 23", "unit": "µg/L"},
      {"measurement": "apparent volume of distribution (VSS)", "setting": "[2]", "value": 1600, "unit": "L"},
      {"measurement": "fraction unbound", "setting": "[2]", "value": 0.396}
    ]}
  ]
}
